Values quoted from earlier work in patent US20220354783A1, “INJECTABLE PROLONGED-ACTION COMPOSITIONS FOR USE IN THE TREATMENT OF NAIL DISEASE AND/OR FOR PROMOTING NAIL GROWTH” (EDIX-O SARL, priority 2018, published 2022).

System: nail diseases
Conditions: oral forms, 250 mg per day for 6 to 12 weeks

CN(C/C=C/C#CC(C)(C)C)Cc1cccc2ccccc12 [terbinafine]
total healing in clinical studies: 38%
